What was measured:
[1] = tested on: larvae of the mustard beetle (Phaedon cochleariae); test: Phaedon test (PHAECO spray treatment); assay type: in vivo; conditions: application rate of 500 g/ha; spray treatment of Chinese cabbage leaf discs
Description: Phaedon Test ([…] Spray Treatment) Solvents: 78 parts by weight of acetone • • 1.5 parts by weight of dimethylformamide Emulsifier: 0.5 part by weight of alkylaryl polyglycol ether To produce a suitable preparation of active compound, 1 part by weight of active compound is mixed with the stated amounts of solvent and emulsifier, and the concentrate is diluted with emulsifier-containing water to the desired concentration. Discs of Chinese cabbage leaves (Brassica pekinensis) are sprayed with an active compound preparation of the desired concentration and, after drying, populated with larvae of the mustard beetle (Phaedon cochleariae). After the desired period of time, the effect in % is determined 100% means that all beetle larvae have been killed; 0% means that none of the beetle larvae have been killed.

[2] = tested on: green peach aphid (Myzus persicae); test: Myzus test (MYZUPE spray treatment); assay type: in vivo; conditions: application rate of 500 g/ha; spray treatment of infested Chinese cabbage leaf discs, all stages
Description: Myzus Test (MYZUPE Spray Treatment) Solvents: 78 parts by weight of acetone • • 1.5 parts by weight of dimethylformamide Emulsifier: 0.5 part by weight of alkylaryl polyglycol ether To produce a suitable preparation of active compound, 1 part by weight of active compound is mixed with the stated amounts of solvent and emulsifier, and the concentrate is diluted with emulsifier-containing water to the desired concentration. Discs of Chinese cabbage leaves (Brassica pekinensis) which are infested by all stages of the green peach aphid (Myzus persicae) are sprayed with a preparation of active compound of the desired concentration. After the desired period of time, the effect in % is determined 100% means that all aphids have been killed; 0% means that none of the aphids have been killed.

With FC(F)CN(Cc1ccc(Cl)nc1)C1=CC(=S)OC1 [Ex. No. 1, 4-{[(6-Chloropyridin-3-yl)methyl](2,2-difluoroethyl)amino}furan-2(5H)-thione] the “activity (effect in %; 100% means that all beetle larvae have been killed)” value [1] was no less than 80% and the “activity (effect in %; 100% means that all aphids have been killed)” value [2] was no less than 80%.

— patent US8563584B2, “Substituted enaminothiocarbonyl compounds” (Bayer CropScience AG, priority 2008, dated 2013)
